Laboratory results reported in patent publication US10668049B2, “Methods of treating cognitive decline with transforming growth factor beta inhibitors” (The Regents of the University of California, priority 2008, dated 2020).

Legend:
Smad2 = assay: Smad2-P Western blot of cortical lysates after in vivo albumin treatment; design: species or system rat; settings: animals exposed for 48 hours, compared to sham-operated controls
Method: All experimental procedures were approved by the ethical committees dealing with experiments on animals at Charité University Medicine, Berlin and Ben-Gurion University of the Negev, Beer-Sheva. The in vivo experiments were performed as previously described (ivens et al., 2007; Seiffert et al., 2004). Adult male Wistar rats were treated with artificial cerebrospinal fluid (aCSF, composition in mM: 129 NaCl, 21 NaHCO3, 1.25 NaH2PO4, 1.8 MgSO4, 1.6 CaCl2, 3 KCl, 10 glucose) supplemented with deoxycholic acid (DOC, 2 mM, Sigma-Aldrich, Steinheim, Germany), bovine serum albumin (BSA, 0.1 mM. Merck, Darmstadt, Germany) corresponding to 25% of serum albumin concentration, or with TGF-β1 (10 ng/ml, Peprotech, Rocky Hill, N.J.). Sham-operated animals (perfused with aCSF) served as controls. […] Animals were sacrificed 7/8, 24, or 48 hours following treatment. […]
To determine whether albumin binds to TGF-β receptors, co-immunoprecipitation using antibodies against albumin or TGF-βRII was performed on cortical lysate samples treated with albumin. An expected hand corresponding to TGF-βRII was detected in samples immunoprecipitated with the TGF-βRII antibody. More importantly, this band was also detected in samples pre-incubated with albumin when immunoprecipitated with the albumin antibody and probed for TGF-βRII (FIG. 2a). […]

astrocytic cultures = assay: RT-PCR of astrocytic cultures exposed to albumin; assay type: cell-based, rat; settings: albumin for 24 h
Method: Primary neuronal cortical cultures were prepared from embryonic day 18 rats as reported previously (Kaufer et al., 2004). Briefly, cells were dissociated with a papain solution for 20 min at 37° C., After the removal of the papain solution, the tissue was resuspended in growth medium [MEM with Earle's salts containing 2.5% B27 supplement, 0.1% mito serum extender, 5% fetal bovine serum (FBS), 20 mM glucose, and 5 mM L-glutamine] and dissociated by mechanical trituration. The cells were plated, and after 4 h in vitro the cell culture medium was replaced with neurobasal medium supplemented with 2% B27 supplement and 0.5 mM GlutaMAX™. The cells were maintained in 5% CO2 at 37° C. After 7 days in vitro, cytosine arabinofuranoside (AraC) (10 μM) was added to the cultures. After 10 days in vitro, the cells were incubated with 0.4 mM albumin for 24 h at 37° C. For astrocytic cultures, astrocytcs were isolated from the cerebral cortices of PO rat pups. Cells were dissociated with papain and mechanical trituration. The cells were cultured in high-glucose Dulbecco's modified eagle medium supplemented with 10% FBS and 1% penicillin/streptomycin at 37° C. and in 5% C02 (medium was replaced every 3-4 days). After 10 days in vitro, the culture medium was replaced with serum-free high-glucose DMEM (containing 1% penicillin/streptomycin) for 18 h. The cells were then incubated in scrum-free medium containing 0.4 mM albumin for 24 h at 37° C. For immunostainings cells were washed with phosphate buffered saline (PBS) and fixed in 4% paraformaldehyde for 15 min. The cells were permeabilized with 0.2% Triton X-100 in PBS for 5 min and washed in PBS. They were then incubated with 5% normal donkey serum in PBS for one hour at room temperature followed by overnight incubation at 4° C. with either mouse anti-NeuN (1:1000: Chemicon, Temecula, Calif.) or mouse anti-GFAP (1:1000: Cell Signaling Technology, Beverly, Mass.). The cells were washed in PBS, incubated with donkey anti-mouse Cy3 (1:1000; Jackson ImmunoResearch. West Grove, Pa.) for 1 hour at room temperature, and then counterstained with DAPI.
Total RNA was isolated from the somatosensory cortices of animals treated with DOC or albumin (24 h treatment; n=3) or from primary cultures (astrocytic and neuronal, n=3 independent experiments). Expression levels were determined by real-time reverse transcriptase-PCR (RT-PCR) with an iQ5 detection system (Bio-Rad, Hercules, Calif.) using gene-specific primer pairs. RT-PCR data were analyzed using the PCR Miner program (Zhao and Fernald, 2005), and fold changes in gene expression were represented relative to sham-operated controls (in-vivo samples) or serum-deprived controls (in-vitro, samples). Ribosomal 18S RNA (18S rRNA) was used as an internal control for variations in sample preparation. For samples from in-vivo treatments, RT-PCR was performed with the iScript one-step RT-PCR kit (Bio-Rad). Control RT-PCR reactions were performed without reverse transcriptase to verify amplification of genomic DNA. For in-vitro samples, DNase treatment was applied, followed by first-strand cDNA synthesis (iScript cDNA Synthesis kit, Bio-Rad). PCR reactions were carried out with iQ SYBR Green Supermix (Bio-Rad). Primer specificity was verified by melt curve analysis. The amplification cycles for 18S, Gja1, GS, SLC1A2, SLC1A3 (GLAST) and Kenj10 consisted of 40 cycles of 10 s at 95° C., 30 s at 55° C., and 30 s at 72° C. […]

## albumin: bovine serum albumin, used to induce epileptogenesis
Smad2
  Smad2 phosphorylation levels in cortical lysates: increase in Smad2 phosphorylation
Astrocytic cultures
  GS transcript expression: significant down-regulation
  Gja1 transcript expression: significant down-regulation
  Gjb2 transcript expression: significant down-regulation
  Gjb6 transcript expression: significant down-regulation
  S1C1A3 transcript expression: significant down-regulation
